In publication PMC8961538, “N-Acylated and N-Alkylated 2-Aminobenzothiazoles Are Novel Agents That Suppress the Generation of Prostaglandin E2” (Biomolecules, 2022):
Blank lines part the entries; values can stand above or below the molecule they belong to.

Assays:
[1] = tested on: PGE2 generation in rat mesangial cells; details: cited from earlier work; for EC50: read-out: EC50, inhibition of PGE2 formation
[2] = tested on: PGE2 generation in CD4+ T cells; set-up: method as in PMID 25213337; details: cited from earlier work
GVIA iPLA2 = tested on: GVIA iPLA2; set-up: method as in PMID 16203828; details: in vitro; cited from earlier work
GIVA cPLA2 = tested on: GIVA cPLA2; set-up: method as in PMID 16203828; details: in vitro; cited from earlier work
hyperalgesia = tested on: hyperalgesia; set-up: method as in PMID 16203828; details: in vivo; cited from earlier work
spinal PGE2 release = tested on: spinal PGE2 release; set-up: method as in PMID 16203828; details: in vivo; cited from earlier work
[3] = tested on: PGE2 generation in rat mesangial cells; assay: Suppression of IL-1β/forskolin-stimulated PGE2 generation in rat renal mesangial cells; type: cell-based; details: Rattus norvegicus, Mesangial cell, 24 h
Description: Rat renal mesangial cells (clone MZ B1), isolated and characterized as previously described, were cultivated in RPMI 1640 medium supplemented with 10% fetal bovine serum; 10 mM 4-(2-hydroxyethyl)-1-piperazineethanesulfonic acid (HEPES), pH 7.4; 6 µg/mL of bovine insulin; 5 µg/mL of transferrin; 5 nM sodium selenite; 100 units/mL of penicillin; and 100 µg/mL of streptomycin. The cells were incubated for 4 h in Dulbecco’s modified Eagle’s medium (DMEM) containing 10 mM HEPES, pH 7.4, and 0.1 mg/mL of fatty acid-free bovine serum albumin (BSA), prior to stimulation.
Confluent mesangial cells in 24-well plates were pretreated for 20 min with varying concentrations of inhibitors and then stimulated for 24 h in a total volume of 400 µL of DMEM containing 0.1 mg/mL of BSA, in the absence or presence of 1 nM interleukin 1β (IL-1) plus 5 μM forskolin (Fk). Thereafter, the supernatants were collected and centrifuged for 5 min at 1000× g. The PGE2 in the supernatant was quantified using an enzyme-linked immunoassay (Enzo Life Sciences, Lörrach, Germany) following the manufacturer’s recommendations.
Statistical analysis of the data was performed using one-way analysis of variance (ANOVA) followed by a Bonferroni’s post hoc test for multiple comparisons (GraphPad Prism 8.4.3., San Diego, CA, USA). The half maximal effective concentrations (EC50) of the inhibitors were calculated using the same software.

[4] = tested on: rat-paw carrageenan-induced edema; assay: Rat-paw carrageenan-induced-edema assay; type: in vivo; details: 0.01 mmol/kg, same dose as indomethacin
Description: The anti-inflammatory activities of selected aminobenzothiazole derivatives were determined by employing the rat-paw carrageenan-induced-edema assay, as previously described. Only male animals (180–220 g body weight) were used. Each group was composed of five animals. The animals were divided into three five-membered groups, and all the tested compounds were suspended in water (0.01 mmol/mL/kg body weight), with a few drops of Tween 80, and ground in a mortar before being administered intraperitoneally simultaneously. After treatment with the tested compounds in group 1, a 2nd group was used as a positive control (indomethacin at 0.01 mmol/mL/kg body weight, i.p.), and another group (3rd) served as the control in which water was administered (negative control). The compounds were injected intraperitoneally at the same time as carrageenan was given by intradermal injection. The rats were euthanized 3.5 h post-injection. The weight of the uninjected with carrageenan paw was subtracted from the weight of the injected paw for each animal. The change in paw weight for the treated animals was compared to that for the control animals and expressed as the percent inhibition of edema. The values of CPE % are the means from three different experiments with standard errors of the mean less than 10%. The statistical significance of the results was established with Student’s t-test, for * p < 0.01 and ** p < 0.05. All the animal experiments performed in the manuscript were conducted in compliance with institutional guidelines. Our studies were in accordance with recognized guidelines on animal experimentation (guidelines for the care and use of laboratory animals published by the Greek Government 160/1991, based on EU regulations 86/609). The rats were kept in the Centre of the School of Veterinary Medicine (EL54 BIO42), Aristotle University of Thessaloniki, which is registered by the official state veterinary authorities (presidential degree 56/2013, in harmonization with the European Directive 2010/63/EEC). The experimental protocols were approved by the Animal Ethics Committee of the Prefecture of Central Macedonia (no. 270079/2500).

[5] = molecular target: T1, human recombinant group VIA phospholipase A2 (GVIA iPLA2) (Homo sapiens, UniProt O60733); assay: Lipidomics-based mixed micelle PLA2 activity assay, GVIA iPLA2; type: biochemical; details: mole fraction of inhibitor in total substrate interface required to inhibit enzyme activity by 50%
T1 sequence (O60733 1-806): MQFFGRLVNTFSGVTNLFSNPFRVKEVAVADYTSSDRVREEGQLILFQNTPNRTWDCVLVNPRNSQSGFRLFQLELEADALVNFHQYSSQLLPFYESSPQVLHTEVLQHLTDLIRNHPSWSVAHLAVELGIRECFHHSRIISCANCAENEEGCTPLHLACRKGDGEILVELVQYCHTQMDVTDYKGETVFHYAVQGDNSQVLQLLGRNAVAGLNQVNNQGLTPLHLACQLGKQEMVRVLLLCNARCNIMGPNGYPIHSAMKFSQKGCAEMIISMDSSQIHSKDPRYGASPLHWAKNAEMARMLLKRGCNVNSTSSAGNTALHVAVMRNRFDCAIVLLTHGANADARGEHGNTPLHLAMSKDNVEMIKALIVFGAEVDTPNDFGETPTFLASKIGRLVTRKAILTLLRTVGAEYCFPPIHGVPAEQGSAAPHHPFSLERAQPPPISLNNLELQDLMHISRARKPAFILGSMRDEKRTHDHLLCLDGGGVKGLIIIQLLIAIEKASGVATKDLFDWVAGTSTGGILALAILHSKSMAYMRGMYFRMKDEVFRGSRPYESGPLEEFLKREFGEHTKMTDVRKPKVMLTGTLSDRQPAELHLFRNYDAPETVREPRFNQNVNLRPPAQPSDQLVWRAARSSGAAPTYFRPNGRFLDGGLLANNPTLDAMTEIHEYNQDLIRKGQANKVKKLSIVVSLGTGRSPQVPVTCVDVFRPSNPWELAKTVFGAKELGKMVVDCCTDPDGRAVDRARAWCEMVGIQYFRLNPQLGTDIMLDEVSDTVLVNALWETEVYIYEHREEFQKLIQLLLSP

[6] = tested on: NO formation in cytokine-stimulated rat mesangial cells; assay: IL-1/Fk-stimulated nitrite (NO) formation in rat mesangial cells, Griess assay; type: cell-based; details: IL-1 plus Fk, 24 h; nitrite in supernatants
Description: Figure S1. Effect of the inhibitor 19a on IL-1/Fk-stimulated nitrite formation in rat mesangial
Cells were pretreated for 20 min with the indicated concentrations of 19a and then stimulated for
24 h in the absence (-) or presence (+) of 1 nM interleukin 1β (IL-1) plus 5 µM forskolin (Fk).
Nitrite was quantified in supernatants using Griess assay as previously described.1 Data are
presented as mM of nitrite and are means +/- S.D. (n = 3).
1β induction of nitric oxide synthase in renal mesangial cells. Eur. J. Pharmacol. 1993,
(1 picture or pasted object on this page, not shown here)

[7] = tested on: allodynia after facial carrageenan injection; details: after facial carrageenan injection in mice; cited from earlier work

Structure (SMILES): O=C(CCCCc1ccc2ccccc2c1)c1nc2ccccc2o1 [Compound 2]
EC50 ([1]; rat mesangial cells): 790 nM

Structure (SMILES): O=C(CCCCc1ccc2ccccc2c1)c1nc2ccccc2s1 [Compound 1]
% inhibition of PGE2 generation ([1]; comparison value for compound 1): 85%
EC50 ([1]; rat mesangial cells): 710 nM

Structure (SMILES): O=C(CCCCc1ccc2ccccc2c1)C(F)(F)F [FKGK18, 1,1,1-trifluoro-6-(2-naphthalenyl)-2-hexanone]
Inhibition of generation of PGE2 [2]: inhibit the generation of PGE2

Structure (SMILES): CCCCCCCCCCCCCCC(=O)C(=O)NCCCC(=O)OCC [AX048, ethyl 4-(2-oxohexadecanamido)butanoate]
XI(50) for GVIA iPLA2 (GVIA iPLA2): 0.027 mole fraction
XI(50) for GIVA cPLA2 (GIVA cPLA2): 0.022 mole fraction
Anti-hyperalgesic activity (hyperalgesia): anti-hyperalgesic activity
Inhibition of spinal PGE2 release (spinal PGE2 release): inhibits spinal PGE2 release

IC50 ([3]; 0.1 to 3 µM, IL-1β plus forskolin, read-out: EC50 (μM), inhibition of PGE2 generation): 0.118 µM
XI(50) for GVIA iPLA2 [5]: 0.03 mole fraction
melting point: 112 to 114 °C
Structure (SMILES): c1ccc2cc(CCCNc3nc4ccccc4s3)ccc2c1 [Compound 19a, N-(3-(Naphthalen-2-yl)Propyl)Benzo[d]Thiazol-2-Amine]
inhibition at 3 µM ([3]; 3 μM, 1 nM IL-1β plus 5 μM forskolin): > 80%
In vivo anti-inflammatory activity compared with indomethacin [4]: higher than that of indomethacin
In vivo anti-inflammatory activity compared with indomethacin ([4]; listed as GK543): greater than that of indomethacin
Effect on NO production [6]: No effect

Structure (SMILES): CCCCC/C=C\C/C=C\C/C=C\C/C=C\CCCC(=O)C(F)(F)F [arachidonoyl trifluoromethyl ketone]
Inhibition of cytokine-stimulated generation of PGE2 ([1]; rat mesangial cells): inhibits
Effect on allodynia [7]: modulates allodynia
